Values quoted from earlier work as cited in patent US20120142750A1, “INDOLEAMINE 2,3-DIOXYGENASE PATHWAYS IN THE GENERATION OF REGULATORY T CELLS” (Regents of the University of Minnesota, priority 2005, published 2012).
pEC50: −log10 of the molar value.

Molecular target: IDO (Homo sapiens, UniProt P14902)
Details: approximate literature value; cited from earlier work

IDO, sequence (P14902 whole entry): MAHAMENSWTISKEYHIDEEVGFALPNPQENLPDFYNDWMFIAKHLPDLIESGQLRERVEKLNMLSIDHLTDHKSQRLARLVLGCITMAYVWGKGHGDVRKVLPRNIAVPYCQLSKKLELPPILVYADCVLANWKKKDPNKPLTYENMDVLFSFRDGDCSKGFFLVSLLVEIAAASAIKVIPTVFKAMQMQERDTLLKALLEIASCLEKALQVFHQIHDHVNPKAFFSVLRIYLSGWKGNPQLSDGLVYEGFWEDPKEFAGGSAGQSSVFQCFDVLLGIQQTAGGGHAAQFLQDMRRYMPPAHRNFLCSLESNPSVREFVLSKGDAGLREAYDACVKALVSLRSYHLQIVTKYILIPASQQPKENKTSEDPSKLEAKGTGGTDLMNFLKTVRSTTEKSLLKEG

With O=C1C2=C(Nc3cc([N+](=O)[O-])ccc3N2)OC1c1ccc(C2OC3=C(Nc4ccc([N+](=O)[O-])cc4N3)C2=O)cc1 (stereo not shown) [Inhibitor V] as the molecule, how does the pEC50 read?
Its pEC50 is ~6.00.
